Entries after “also recorded” stand apart in the source; their conditions may differ.

Assay [1] has as its system A431 cells. The assay can be described thus: EpCAM-CAR-T cytotoxicity assay, A431 cells cultured in DMEM media (no matrigel). It is filed as cell-based, human. Conditions: Pemigatinib 5 μM and 10 μM, E:T 3.5, DMEM media. The procedure: […] […] Tumor cell growth and CAR-T cytotoxicity were determined from real-time impedance and live cell imaging data collected on the XCELLIGENCE RTCA ESIGHT® imaging and sensing system. Pemigatinib (1 μM, 5 μM and 10 μM), an inhibitor of FGFR isoforms 1-3, sold under the brand name Pemazyre was used to evaluate the role of FGFR signaling. Percent cytolysis was calculated from normalized cell impedance and imaging (red fluorescence) data using the formula [(1−(treated/control)*100].
[…] The background impedance signal was measured with 50 μL of c-DMEM media in the wells of E-plate VIEW microplate (Agilent Technologies, Cat#0030060101030). […] Impedance was read every 15 minutes and images were taken every 60 minutes. Images from four fields of view were acquired for each well in brightfield and red fluorescence channel. […]
(§1) The software generates a real-time plot of impedance data with time (X-axis) and Cell Index (CI, Y-axis). […] Normalized Cell Index (NCI(t)) was calculated by dividing the CI at time t (CI(t)) with CI at normalization time point (CI(tnormalization)). […] Percent cytolysis was calculated from NCI (impedance) using the formula [(1−(CAR-T treated/Pemigatinib treated)*100]. Percent cytolysis was calculated from red object counts/well (imaging) using the formula [(1−(CAR-T treated/Pemigatinib treated)*100].

In another assay the test system is A431-red target cells. Briefly: ECM invasion and cytotoxicity assay: EpCAM-CAR-T cells over matrigel layered on A431-red cells (impedance and imaging). It is filed as cell-based, human. Conditions: for percent cytolysis (CAR-T killing): matrigel. The procedure: (§2) Briefly, matrigel (6 mg/ml) was layered (50 μL/ell) over A431-red target tumor cells expressing nuclear-localized mKate2 (red fluorescent protein). After 2 h, epithelial cell adhesion molecule (EpCAM)-CAR-T cells were seeded over the matrigel layer. Tumor cell growth and CAR-T cytotoxicity were determined from real-time impedance and live cell imaging data collected on the XCELLIGENCE RTCA ESIGHT® imaging and sensing system. Pemigatinib (1 μM, 5 μM and 10 μM), an inhibitor of FGFR isoforms 1-3, sold under the brand name Pemazyre was used to evaluate the role of FGFR signaling. Percent cytolysis was calculated from normalized cell impedance and imaging (red fluorescence) data using the formula [(1−(treated/control)*100].
(§3) The ability of EpCAM-CAR-T cells to invade the matrigel and kill A431-red target cells was evaluated using impedance and imaging readouts on an XCELLIGENCE RTCA ESIGHT® imaging and sensing system. The background impedance signal was measured with 50 μL of c-DMEM media in the wells of E-plate VIEW microplate (Agilent Technologies, Cat#0030060101030). Cell suspension of A 431-red cells was prepared in c-DMEM at desired cell numbers to be aliquot at 100 μL/well. After the addition of tumor cells, the E-plate was allowed to rest at room temperature for 30 min to facilitate an even distribution at the bottom. […] Impedance was read every 15 minutes and images were taken every 60 minutes. Images from four fields of view were acquired for each well in brightfield and red fluorescence channel. […]
as §1

Assay [2] relates to A431 cells. Briefly: A431 cell proliferation, normalized cell index over time. It is filed as cell-based, human. On the procedure: as §2
as §3, with “μL/well.” for “μL/well. After the addition of tumor cells, the E-plate was allowed to rest at room temperature for 30 min to facilitate an even distribution at the bottom.”

Another assay relates to MCF-7-red target cells. Briefly: ECM invasion and cytotoxicity assay: NK-92 cells over matrigel layered on MCF-7-red cells (impedance and live cell imaging, xCELLigence RTCA eSight). It is filed as cell-based, human. Conditions: for killing of target cells by NK-92 (drop in impedance): MMP inhibitor 2 μM and 10 μM in matrigel and media. The procedure: An exemplary protocol is described as follows. Briefly, varying volumes of matrigel (50-110 microliters (μL)/well; 6 milligrams (mg)/millilter (mL)) representing increasing distance for invasion is layered over MCF-7 (available from American Type Culture Collection (ATCC)) human breast adenocarcinoma cells stably expressing nuclear-localized red fluorescent protein (MCF-7). NK-92 cells (available from Creative Bioarray, ATCC) are added over the solidified matrigel layer at E:T of 3:1. eLive Green (available from Agilent Technologies, shown in green) is added at 1 μL/mL. A broad spectrum MMP inhibitor (such as GM6001, available from Selleck Chemicals) is used to evaluate the role of matrix metalloproteinases (MMPs).
The ability of NK-92 cells to invade the matrigel and kill the MCF-7-red target cells was evaluated by concurrent impedance and imaging readouts on an XCELLIGENCE RTCA ESIGHT® imaging and sensing system (available from Agilent Tech., Inc.). Background impedance signal was measured with 50 μL of EMEM media in the wells of E-plate VIEW microplate (available from Agilent Technologies, Cat#0030060101030). MCF-7-red target cells (30,000 in 100 μL) were added to each well. The plate was placed at room temperature for thiry minutes to facilitate an even distribution of cells at the bottom. […] Impedance readings were collected every fifteen minutes, and photos were taken every sixty minutes. Images from four fields of view were acquired in each well in brightfield, red, and green fluorescence channels. […] Percent cytolysis was calculated from normalized cell impedance readings at seventy-two hours using the formula: [(1−(treated/untreated)*100]. […]
The ability of NK-92 cells to invade the matrigel and kill the MCF7-red target cells was evaluated by concurrent impedance and imaging readouts on an XCELLIGENCE RTCA ESIGHT® imaging and sensing system as outlined in FIG. 6A. Background impedance signal was measured with 50 μL of EMEM media in the wells of E-plate VIEW microplate. […]

A further assay concerns NK-92 invasion. Conditions: transmigration assays; cited from earlier work.

On to `CCN1C(=O)N(c2c(F)c(OC)cc(OC)c2F)Cc2cnc3[nH]c(CN4CCOCC4)cc3c21` [Pemigatinib], for which, in the assay on A431 cells [1], the “A431 cytolysis by EpCAM-CAR-T cells in the presence of Pemigatinib” value is “accelerated”. The “percent cytolysis (CAR-T killing)” value is listed as about 20% in the assay on A431-red target cells (5 μM Pemigatinib with EpCAM-CAR-T) and −40% in the assay with A431-red target cells (10 μM Pemigatinib with EpCAM-CAR-T). Moreover, in the assay on A431-red target cells (E:T=20:1 and 1 μM Pemigatinib), the “elimination of A431 cells in invasion assays” value is listed as “Complete elimination”. The “proliferation of A431 cells (normalized cell index)” value in the assay with A431 cells [2] (in the presence of matrigel, 1, 5 and 10 μM tested) is “reduces the proliferation of A431 cells in the presence of matrigel in a concentration-dependent manner; also recorded: reduced the proliferation of A431 cells with increasing concentrations tested”; with A431 cells [2] (native DMEM media, no matrigel) it was “slows the proliferation of A431 cells in native DMEM media in a concentration dependent manner”.

Turning to `CNC(=O)[C@H](Cc1c[nH]c2ccccc12)NC(=O)[C@@H](CC(=O)NO)CC(C)C` [GM6001, Ilomostat], the “target cell killing by GFP-NK92 cells (percent cytolysis from normalized impedance and red fluorescence imaging)” value in the assay on MCF-7-red target cells (2 μM and 10 μM) is “delayed and reduced target cell killing”. For the same compound, the entries for the “killing of target cells by NK-92 (drop in impedance)” value in the assay with MCF-7-red target cells and with MCF-7-red target cells (listed as Ilomostat) were “delayed but not abrogated” and “delayed the killing of target cells”, respectively. Moreover, the “NK-92 invasion in matrigel in the presence of MMP inhibitor” value in the assay with NK-92 invasion is reported as “reduced”.

Source of the values: patent US20260185979A1, “APPARATUSES AND METHODS FOR ANALYZING LIVE CELLS” (AGILENT TECHNOLOGIES, INC., priority 2022, published 2026).
